Data reported in patent US20030083228A1, “Treatments for female sexual dysfunction and methods for identifying compounds useful for treating female sexual dysfunction” (priority 2001, published 2003).

Key:
melanocortin-4 receptors = melanocortin-4 receptors (Homo sapiens, UniProt P32245); assay: [125I]AGRP competition binding assay; conditions: particularly melanocortin-4 receptors
Description: (§1) The first radioligand binding assay is an [^125I]AGRP competition binding assay. Compounds that attenuate binding of [^125I]AGRP or AGRP would be detected in this assay. It is noted that compounds can attenuate the binding of AGRP to melanocortin 3 and/or 4 receptors by binding to melanocortin 3 and/or 4 receptors or by binding to AGRP itself. The second radioligand binding assay is an assay using radiolabeled melanocortin ligands, for example, [^125I]norleucine D-phenylalanine melanocyte stimulating hormone ([^125I]NDP-MSH). Membranes prepared from cells expressing either melanocortin 3 or 4 receptors are used in the radioligand binding assays. The preparation and use of [^125I]AGRP and [^125I]NDP-MSH is well known in the art. See, for example, Dang et al., Molecular Endocrinology, 13, 148-155 (1999). In addition, the preparation and use of membranes from cells expressing either melanocortin 3 or 4 receptors are also well known in the art. See, Bass, et al., Molecular Pharmacology, 50, 709-715 (1996).
(§2) Specific Activity of [^125I]AGRP is 2200 Ci/mmole. The final concentration of [^125I]AGRP is 100 pM. Therefore, a 2 nM (20×) stock needs to be made in binding buffer. The concentration of [^125I]AGRP varies from 40-60 nM. [^125I]AGRP can be obtained from New England Nuclear, Boston, Mass.
(§3) The competition assay can be run using 96 well plates. […]

melanocortin receptors = assay: [125I]NDP-MSH competition binding assay
Description: as §1
as §2, with “of [^125I]NDP-MSH” for “of [^125I]AGRP”, “is 250” for “is 100”, “a 5” for “a 2”, “nM. [^125I]NDP-MSH” for “nM. [^125I]AGRP”
as §3

MDA-MB-231 cells = assay: Inhibition of in vitro human breast tumor cell growth, ER-negative cell line; format: cell-based; conditions: MDA-MB-231 (ER-negative), 6 days incubation, direct cell counts
Method: The in vitro antiproliferative effects of (−)-cis-6-phenyl-5-[4-(2-pyrrolidin-1-yl-ethoxy)-phenyl]-5,6,7,8-tetrahydro-naphthalene-2-ol (PPTN) were tested using two types of human breast cancer cell lines: first, MCF-7 cells, which contain ER as well as progesterone receptors (PgR), and second, MDA-MB-231 cells, which lack ER and PgR, and enable the determination of an effect that is independent of the ER mechanism. The effect of PPTN on the growth of these different cell lines was determined by incubation of the cells with various compound concentrations for 6 days.
The antiproliferative effects were then determined by direct cell counts. PPTN inhibited the growth of the ER-positive cell line MCF-7.

Sequence of melanocortin-4 receptors (P32245 whole entry): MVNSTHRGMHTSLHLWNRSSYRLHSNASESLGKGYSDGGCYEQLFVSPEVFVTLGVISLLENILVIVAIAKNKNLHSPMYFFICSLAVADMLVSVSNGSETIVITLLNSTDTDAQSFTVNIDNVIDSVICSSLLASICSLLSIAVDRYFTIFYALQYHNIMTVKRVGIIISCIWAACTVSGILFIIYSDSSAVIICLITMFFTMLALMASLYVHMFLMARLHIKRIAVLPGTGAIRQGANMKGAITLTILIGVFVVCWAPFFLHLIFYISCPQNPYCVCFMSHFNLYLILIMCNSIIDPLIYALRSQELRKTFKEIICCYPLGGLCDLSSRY

Compound	binding of agouti-related protein to melanocortin receptors (melanocortin-4 receptors)	binding of α-melanocyte stimulating hormone to melanocortin receptors (melanocortin receptors)	effect on cell proliferation (MDA-MB-231 cells)
O=[N+]([O-])c1ccc(N2C3c4ccccc4CCN3N(c3ccc([N+](=O)[O-])cc3)C3c4ccccc4CCN32)cc1 (stereo not drawn) [8,16-bis-(4-nitro-phenyl)-5,6,8,8a,13,14,16,16a-octahydro-[1,2,4,5]tetrazino[6,1-a;3,4-a′]diisoquinoline]	attenuates	does not attenuate	–
Oc1ccc2c(c1)CC[C@H](c1ccccc1)[C@@H]2c1ccc(OCCN2CCCC2)cc1 [PPTN, (−)-cis-6-phenyl-5-[4-(2-pyrrolidin-1-yl-ethoxy)-phenyl]-5,6,7,8-tetrahydro-naphthalene-2-ol]	–	–	did not inhibit cell proliferation
